Experiments:
[1] = molecular target: T1, ATP-binding cassette sub-family C member 2 (Homo sapiens, UniProt Q92887); assay: TP_TRANSPORTER: excretion in MRP2-expressing CHO cells; assay type: functional, cell-based; settings: hamster
[2] = molecular target: T1, ATP-binding cassette sub-family C member 2; assay: TP_TRANSPORTER: excretion in MRP2-expressing COS-7 cells; assay type: functional, cell-based; settings: monkey

T1 sequence (Q92887 whole entry): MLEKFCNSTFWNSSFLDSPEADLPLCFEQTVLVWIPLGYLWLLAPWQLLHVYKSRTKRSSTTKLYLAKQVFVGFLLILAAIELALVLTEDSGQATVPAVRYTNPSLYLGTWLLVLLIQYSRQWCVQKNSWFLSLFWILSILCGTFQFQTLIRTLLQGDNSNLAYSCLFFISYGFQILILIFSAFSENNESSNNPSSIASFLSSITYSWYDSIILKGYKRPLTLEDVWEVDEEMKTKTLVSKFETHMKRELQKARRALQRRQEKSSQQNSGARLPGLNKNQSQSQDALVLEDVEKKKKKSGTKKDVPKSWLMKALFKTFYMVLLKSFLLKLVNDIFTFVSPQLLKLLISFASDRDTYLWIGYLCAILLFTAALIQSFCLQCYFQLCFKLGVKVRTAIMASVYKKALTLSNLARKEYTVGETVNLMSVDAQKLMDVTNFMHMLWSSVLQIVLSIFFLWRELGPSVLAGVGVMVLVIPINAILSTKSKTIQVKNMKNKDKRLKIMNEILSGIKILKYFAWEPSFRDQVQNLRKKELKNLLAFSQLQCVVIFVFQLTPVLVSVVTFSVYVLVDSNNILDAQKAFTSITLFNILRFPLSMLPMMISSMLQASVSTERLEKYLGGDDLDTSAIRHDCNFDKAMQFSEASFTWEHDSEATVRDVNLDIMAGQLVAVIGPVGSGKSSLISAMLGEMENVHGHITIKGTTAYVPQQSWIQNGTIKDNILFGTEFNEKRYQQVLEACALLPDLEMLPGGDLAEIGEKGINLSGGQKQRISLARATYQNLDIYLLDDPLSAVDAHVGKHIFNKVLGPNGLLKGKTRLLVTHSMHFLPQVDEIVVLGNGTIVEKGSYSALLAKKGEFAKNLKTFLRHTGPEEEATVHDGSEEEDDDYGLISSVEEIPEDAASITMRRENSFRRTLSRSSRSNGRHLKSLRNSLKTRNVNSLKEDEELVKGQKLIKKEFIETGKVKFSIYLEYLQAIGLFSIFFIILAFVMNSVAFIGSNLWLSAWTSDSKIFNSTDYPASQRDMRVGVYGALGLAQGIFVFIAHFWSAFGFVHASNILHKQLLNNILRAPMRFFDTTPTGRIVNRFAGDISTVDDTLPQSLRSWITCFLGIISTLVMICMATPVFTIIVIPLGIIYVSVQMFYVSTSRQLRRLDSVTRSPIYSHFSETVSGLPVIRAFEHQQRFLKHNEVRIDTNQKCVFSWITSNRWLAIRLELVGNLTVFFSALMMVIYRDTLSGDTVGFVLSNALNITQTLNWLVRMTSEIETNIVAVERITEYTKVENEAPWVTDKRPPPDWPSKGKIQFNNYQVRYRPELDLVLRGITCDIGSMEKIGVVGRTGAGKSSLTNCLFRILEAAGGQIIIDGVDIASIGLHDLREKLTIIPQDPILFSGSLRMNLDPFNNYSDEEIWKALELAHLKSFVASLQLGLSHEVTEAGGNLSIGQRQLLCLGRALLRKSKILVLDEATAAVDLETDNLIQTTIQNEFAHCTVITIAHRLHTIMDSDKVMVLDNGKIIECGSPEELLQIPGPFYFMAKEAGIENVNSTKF

Activity [1] | Activity [2] | SMILES
substrate [+] | substrate [+] | N[C@@H](CCC(=O)N[C@H](CSCc1ccc(-c2c3ccc(=O)cc-3oc3cc(O)ccc23)c(C(=O)O)c1)C(=O)NCC(=O)O)C(=O)O [Glutathione-methylfluorescein]
substrate [+] | substrate [+] | N[C@@H](CCC(=O)N[C@H](CSc1cc(=O)n2c(=O)ccn12)C(=O)NCC(=O)O)C(=O)O

— ChEMBL document CHEMBL2074486, “Identification of basic residues involved in drug export function of human multidrug resistance-associated protein 2” (J Biol Chem, 2000)
